In ChEMBL document CHEMBL5108072, “Discovery of Chlorofluoroacetamide-Based Covalent Inhibitors for Severe Acute Respiratory Syndrome Coronavirus 2 3CL Protease” (J Med Chem, 2022):
Active and inactive are the calls of the source. The rule behind the calls is not given here.

How the values were obtained:
[1] = Bioavailability in fasted ICR/c mouse at 100 mg/kg, po or 10 mg/kg, iv by LC-MS/MS analysis; format: ADME, organism-based; conditions: in vivo
SARS-CoV-2 [2] = assay: microbe, parasite or virus in culture; conditions: Severe acute respiratory syndrome coronavirus 2, alpha QK002, HEK-293T
Procathepsin L = Procathepsin L (Homo sapiens, UniProt P07711); assay: Inhibition of C-terminal His-tagged recombinant Human cathepsin L (18 to 333 residues) expressed in FreeStyle 293-F cells using Z-Leu-Arg-MCA peptide as fluorogenic substrate preincubated for 30 mins followed by substrate addition and measured after 1 hr by multimode plate reader analysis; format: cell-based
Cathepsin S = Cathepsin S (Homo sapiens, UniProt P25774); assay: Inhibition of C-terminal His-tagged recombinant Human cathepsin S (17 to 331 residues) expressed in FreeStyle 293-F cells using Z-Leu-Arg-MCA peptide as fluorogenic substrate preincubated for 30 mins followed by substrate addition and measured after 1 hr by multimode plate reader analysis; format: cell-based
[3] = target: Replicase polyprotein 1ab (Severe acute respiratory syndrome coronavirus 2) (UniProt P0DTD1); assay: Irreversible inhibition of recombinant full length SARS-CoV-2 3CLpro expressed in Escherichia coli using Ac-Abu-Tle-Leu-Gln-MCA as fluorogenic substrate assessed as inhibition of substrate hydrolysis at upto 500 nM incubated for 60 mins by multimode plate reader analysis; conditions: TDE = time-dependent effect
[4] = Drug concentration in fasted ICR/c mouse lungs at 100 mg/kg, po measured after 6 hrs by LC-MS/MS analysis; format: ADME, organism-based, Lung; conditions: in vivo
[5] = Plasma protein binding in mouse assessed as unbound fraction at 1 uM incubated for 16 to 20 hrs by LC-MS/MS analysis; format: ADME, cell-free; conditions: time 16-20 hrs
[6] = Drug concentration in fasted ICR/c mouse lungs at 10 mg/kg, iv measured after 6 hrs by LC-MS/MS analysis; format: ADME, organism-based, Lung; conditions: in vivo
SARS-CoV-2 [7] = assay: microbe, parasite or virus in culture; conditions: Severe acute respiratory syndrome coronavirus 2, delta TY11-927, HEK-293T
Cathepsin B = Cathepsin B (Homo sapiens, UniProt P07858); assay: Inhibition of C-terminal His-tagged Human cathepsin B expressed in FreeStyle 293-F cells using Z-Leu-Arg-MCA peptide as fluorogenic substrate preincubated for 30 mins followed by substrate addition and measured after 1 hr by multimode plate reader analysis; format: cell-based
cells = conditions: Betacoronavirus 1, HEK-293T
[8] = GSH reactivity in potassium phosphate buffer at pH 7.4 assessed as half life at 1 mM; format: physicochemical; conditions: potassium phosphate buffer with GSH
SARS-CoV = assay: microbe, parasite or virus in culture; conditions: Severe acute respiratory syndrome-related coronavirus, HEK-293T
[9] = tested on: Middle East respiratory syndrome-related coronavirus; assay: microbe, parasite or virus in culture; conditions: EMC2012, HEK-293T
SARS-CoV-2 [10] = assay: microbe, parasite or virus in culture; conditions: Severe acute respiratory syndrome coronavirus 2, Vero C1008
SARS-CoV-2 [11] = assay: microbe, parasite or virus in culture; conditions: Severe acute respiratory syndrome coronavirus 2, HEK-293T
SARS-CoV-2 [12] = assay: microbe, parasite or virus in culture; conditions: Severe acute respiratory syndrome coronavirus 2, Vero C1008; remark: listed apart in the source
[13] = target: Replicase polyprotein 1ab (Severe acute respiratory syndrome coronavirus 2) (UniProt P0DTD1); assay: Binding affinity to SARS-CoV-2 3CLpro spiked in human A-431 cells assessed as increase in fluorescence intensity at 0.1 uM incubated for 1 hr by gel electrophoresis based fluorescence analysis; format: cell-based
[14] = target: Replicase polyprotein 1ab (Severe acute respiratory syndrome coronavirus 2, UniProt P0DTD1); assay: Inhibition of recombinant full length SARS-CoV-2 3CLpro expressed in Escherichia coli using Ac-Abu-Tle-Leu-Gln-MCA as fluorogenic substrate preincubated for 30 mins followed by substrate addition and measured for 6 hrs by multimode plate reader analysis
[15] = Toxicity in fasted ICR/c mouse assessed as debilitation at 100 mg/kg, po; format: organism-based; conditions: in vivo
[16] = Toxicity in fasted ICR/c mouse assessed as hypotension at 100 mg/kg, po; format: organism-based; conditions: in vivo

Chain of Cathepsin S (P25774 whole entry, the tested form may be a part): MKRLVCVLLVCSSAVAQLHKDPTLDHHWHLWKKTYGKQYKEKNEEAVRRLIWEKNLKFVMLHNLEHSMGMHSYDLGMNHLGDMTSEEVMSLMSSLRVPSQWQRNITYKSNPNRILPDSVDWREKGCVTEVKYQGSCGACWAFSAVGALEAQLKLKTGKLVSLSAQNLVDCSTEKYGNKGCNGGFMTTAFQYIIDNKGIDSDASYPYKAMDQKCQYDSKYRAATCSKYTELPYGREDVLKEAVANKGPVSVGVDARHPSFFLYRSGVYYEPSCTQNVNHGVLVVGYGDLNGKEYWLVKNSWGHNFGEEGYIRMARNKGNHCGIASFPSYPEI
Chain of Procathepsin L (P07711 whole entry, the tested form may be a part): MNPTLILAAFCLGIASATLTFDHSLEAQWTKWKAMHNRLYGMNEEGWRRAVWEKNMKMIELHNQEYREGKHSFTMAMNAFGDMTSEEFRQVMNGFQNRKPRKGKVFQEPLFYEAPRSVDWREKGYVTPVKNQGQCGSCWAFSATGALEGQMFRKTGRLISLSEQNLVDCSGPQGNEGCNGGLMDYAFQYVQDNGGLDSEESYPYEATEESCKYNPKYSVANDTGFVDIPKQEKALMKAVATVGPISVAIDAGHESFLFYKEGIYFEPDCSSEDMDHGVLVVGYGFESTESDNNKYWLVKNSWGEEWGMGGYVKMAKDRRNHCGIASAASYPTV

Row | Compound | EC50 (SARS-CoV-2 [2]) [nM] | EC50 (SARS-CoV-2 [7]) [nM] | EC50 (cells) [nM] | EC50 (SARS-CoV) [nM] | EC50 [9] [nM] | EC50 (SARS-CoV-2 [10]) [nM] | EC50 (SARS-CoV-2 [11]) [nM] | EC50 (SARS-CoV-2 [12]) [nM] | further results
1 | CC(C)C[C@H](NC(=O)c1cc2c(F)cccc2[nH]1)C(=O)NN(C[C@@H]1CCNC1=O)C(=O)[C@H](F)Cl | 13.8 | 737 | 1.67 | 59.3 | 4.72 | 59 |  |  | bioavailability [1]: 9%; IC50 (Procathepsin L): > 50000 nM; IC50 (Cathepsin S): > 50000 nM; inhibition [3]: Tde; Ct [4]: 78 nmol/mg; Fu [5]: 0.15%; Ct [6]: 63 nmol/mg; IC50 (Cathepsin B): > 50000 nM; half-life at 1000 µM [8]: 48.2 h
2 | CC(C)C[C@H](NC(=O)c1cc2c(F)cccc2[nH]1)C(=O)NN(C[C@H]1CCNC1=O)C(=O)[C@H](F)Cl | 92.3 | 44.5 |  |  |  | 423 | 141 | > 50000 | 
3 | C#CCOc1cccc2[nH]c(C(=O)N[C@@H](CC(C)C)C(=O)NN(C[C@@H]3CCNC3=O)C(=O)[C@H](F)Cl)cc12 |  |  |  |  |  |  |  |  | Activity [13]: Active
4 | O=c1nc(NO)ccn1[C@@H]1O[C@H](CO)[C@@H](O)[C@H]1O [N-HYDROXYCYTIDINE] | 1220 | 351 | 1190 | 1560 | 1320 | 238 | 446 | 204 | 
5 | CC(C)C[C@H](NC(=O)c1cc2c(F)cccc2[nH]1)C(=O)NN(C[C@@H]1CCNC1=O)C(=O)[C@@H](F)Cl | 69 | 48.7 |  |  |  |  | 198 |  | inhibition [3]: Tde
6 | CC(=O)N(C[C@@H]1CCNC1=O)NC(=O)[C@H](CC(C)C)NC(=O)c1cc2c(F)cccc2[nH]1 |  |  |  |  |  |  |  |  | IC50 [14]: 332 nM
7 | COc1cccc2[nH]c(C(=O)N[C@@H](CC(C)C)C(=O)N[C@@H](C[C@@H]3CCNC3=O)C(=O)CO)cc12 [PF-00835231] | 1600 | 692 | 929 | 3240 | 700 | 509 | 915 | > 50000 | 
8 | COc1cccc2[nH]c(C(=O)N[C@@H](CC(C)C)C(=O)NN(C[C@@H]3CCNC3=O)C(=O)[C@H](F)Cl)cc12 | 16.2 | 8.79 | 3.18 | 64.4 | 5.01 | 69.7 | 24.4 | 20800 | Activity [15]: Toxic; Activity [16]: Toxic; IC50 [14]: 9.5 nM
9 | COc1cccc2[nH]c(C(=O)N[C@@H](CC(C)C)C(=O)NN(C[C@H]3CCNC3=O)C(=O)[C@H](F)Cl)cc12 | 103 | 50 |  |  |  | 389 | 119 | > 50000 | 
